Patent US7700584B2 (Hangzhou Minsheng Pharmaceuticals Co., Ltd., priority 2004, dated 2010)

Tests used:
Type in all cases: cell-based
Conditions in all cases: 50 μg/ml
[1] = system: U-937 human histocytic lymphoma; experiment: In vitro inhibition rate to tumor cells (MTT), U-937
Method: (§1) (1) Single cell suspension was seeded into 96-well plates (×3) (the cells was diluted in the PRMI-1640 minimum medium to 3×10^4 cells/ml, […] diluted cells/well). […] The experiments were performed in quadruplicate.
(§2) (2) The medium was removed. Solutions of the anti-tumor agents (15 compounds) were prepared in a freshly prepared medium at the concentrations indicated in the following Table. […] of the solution was added into each well. Incubation was continued for 48 hours.
(§3) (3) […] of 2 mg/ml MTT was added into each well, and incubated for 4 hours.
(§4) (4) The medium was removed from the well. The microplates were swiftly turned down to throw-off the medium. […] DMSO was added into each well, and vortexed at room temperature for 10 minutes.
(§5) (5) OD value (λ=570 nm) was measured with an Enzyme-Linked Detector.
(§6) (6) The inhibition rates (IR) of cell growth were respectively calculated based on the following equation: IR(%)=[1−(average OD of the experimental group/average OD of the control group)]×100%

[2] = system: A-549 human lung adenocarcinoma; experiment: In vitro inhibition rate to tumor cells (MTT), A-549
Method: as §1, §2, §3, §4, §5, §6

[3] = system: Bel-7402 human hepatic carcinoma; experiment: In vitro inhibition rate to tumor cells (MTT), Bel-7402
Method: as §1, §2, §3, §4, §5, §6

[4] = system: MCF-7 human mammary adenocarcinoma; experiment: In vitro inhibition rate to tumor cells (MTT), MCF-7
Method: as §1, §2, §3, §4, §5, §6

[5] = system: SMMC-7721 human hepatic carcinoma; experiment: In vitro inhibition rate to tumor cells (MTT), SMMC-7721
Method: as §1, §2, §3, §4, §5, §6

[6] = system: HL-60 human promyelocytic leukemia; experiment: In vitro inhibition rate to tumor cells (MTT), HL-60
Method: as §1, §2, §3, §4, §5, §6

[7] = system: Hela human cervical carcinoma; experiment: In vitro inhibition rate to tumor cells (MTT), Hela
Method: as §1, §2, §3, §4, §5, §6

[8] = system: LLC mouse Lewis lung carcinoma; experiment: In vitro inhibition rate to tumor cells (MTT), LLC
Method: as §1, §2, §3, §4, §5, §6

Row | SMILES | inhibition rate, Results (%) U-937 ([1]; Table 1) [%] | inhibition rate, Results (%) U-937 ([1]; Table 2 (repeated screening)) [%] | inhibition rate, Results (%) A-549 ([2]; Table 1) [%] | inhibition rate, Results (%) A-549 ([2]; Table 2 (repeated screening)) [%] | inhibition rate, Results (%) Bel-7402 ([3]; Table 1) [%] | inhibition rate, Results (%) Bel-7402 ([3]; Table 2 (repeated screening)) [%] | inhibition rate, Results (%) MCF-7 ([4]; Table 1) [%] | inhibition rate, Results (%) MCF-7 ([4]; Table 2 (repeated screening)) [%] | inhibition rate, Results (%) SMMC-7721 ([5]; Table 1) [%] | inhibition rate, Results (%) SMMC-7721 ([5]; Table 2 (repeated screening)) [%] | inhibition rate, Results (%) HL-60 ([6]; Table 1) [%] | inhibition rate, Results (%) HL-60 ([6]; Table 2 (repeated screening)) [%] | inhibition rate, Results (%) Hela ([7]; Table 1) [%] | inhibition rate, Results (%) Hela ([7]; Table 2 (repeated screening)) [%] | inhibition rate, Results (%) LLC ([8]; Table 1) [%] | inhibition rate, Results (%) LLC ([8]; Table 2 (repeated screening)) [%]
1 | CC(C)C1CC23OC1(O)CC(=CO)C2CCC3C (centres unmarked) [Compound 18, Curcumol monohydroxy compound] | 70.30 | 69.23 | −2.24 | −0.32 | 13.58 | 11.23 | 57.89 | 54.32 | 13.39 | 0.69 | 4.26 | 7.32 | 60.32 | 65.03 | 4.18 | 0.22
2 | CC(=O)OC12CC(=O)C3CCC(C)C3(CC1C(C)C)O2 (centres unmarked) [Compound 49, Curzerenone acetate] | 78.65 | 75.23 | 5.36 | 4.23 | 2.69 | 14.02 | 0.65 | 1.56 | −11.3 | −1.78 | 55.35 | 57.89 | 79.8 | 75.65 | −0.15 | 0.12
3 | CCCCNC1(C)CC2(OC)OC3(CC2C(C)C)C(C)CCC13 (centres unmarked) [Compound 45, Curcumol methyl ether n-butyl amine without double bond] | 32.19 | 12.32 | 2.10 | 0.32 | 3.01 | 5.02 | 26.78 | 20.73 | −10.73 | −11.23 | 6.14 | 1.23 | 59.45 | 53.12 | 2.74 | 1.32
4 | CCCCNC1(C)CC2(OC)OC3(CC2C(C)C)C(C)CCC13.Cl (centres unmarked) [Compound 46, Curcumol methyl ether n-butyl amine hydrochloride without double bond] | 16.32 | 8.65 | 3.12 | 3.78 | 4.55 | 4.65 | 19.88 | 14.98 | −0.86 | −0.45 | −2.60 | −4.56 | 53.12 | 49.56 | −12.99 | −17.56
5 | CC(C)C1CC23OC1(O)CC(C)(N1CCNCC1)C2CCC3C.Cl (centres unmarked) [Compound 44, Curcumol piperazine hydrochloride without double bond] | 35.64 | 23.56 | 23.01 | 20.33 | −6.54 | 0.23 | 25.55 | 24.11 | −10.53 | −7.89 | 3.71 | 5.37 | 55.14 | 50.01 | 23.35 | 17.565
6 | CC(C)C1CC23OC1(O)CC(CN1CCNCC1)(N1CCNCC1)C2CCC3C (centres unmarked) [Compound 41, Curcumol bispiperazine] | 8.65 | −1.02 | −2.50 | −7.89 | 16.78 | 1.23 | 36.45 | 31.28 | 4.42 | 3.12 | 6.78 | 1.86 | 50.32 | 51.23 | 30.96 | 23.65
7 | CC(C)C1CC23OC1(O)CC(CO[N+](=O)[O-])(O[N+](=O)[O-])C2CCC3C (centres unmarked) [Compound 31, Curcumol dinitrate] | −0.68 | −12.61 | 8.65 | 4.82 | 0.23 | 8.42 | 16.75 | 14.87 | −1.96 | −4.56 | 16.50 | 2.78 | 57.98 | 55.49 | 1.13 | 1.25
8 | CC(C)C1CC23OC1(O)CC(C)(O)C2CCC3C (centres unmarked) [Compound 35, Curcumol monohydroxy compound without double bond] | 7.36 | 0.23 | 3.89 | 2.77 | 3.65 | 6.78 | 3.89 | 9.87 | 5.23 | 4.32 | 3.12 | 3.99 | 59.88 | 64.01 | 8.97 | 8.23
